What was measured:
MIA PaCa-2 cells [1] = assay: MIA PaCa-2 cell growth (cell count); format: cell-based; details: 0.1 uM and higher (up to 10.0 uM); day 2, 4 and 6
Description: Cancer is characterized by uncontrolled cell growth. Any agent which can reduce the cellular growth will have high therapeutic potentials. […] MIA PaCa-2 cells (ATCC) were seeded in a 6-well plate (20,000 cells per well) in DMEM containing 25 mM glucose, 10% FBS, 2.5% horse serum in presence or absence of different concentrations of compound-40 as mentioned. Cells were harvested on day 2, day 4 and day 6, and cell numbers were measured. MIA PaCa-2 cells were grown with or without different concentrations of compound-40 (0.0, 0.1, 0.3, 1.0, 3.0 and 10.0 uM) and cell growth was measured by cell count at different time points (day 2, 4 and 6).

MIA PaCa-2 cells [2] = assay: Caspase-3 activity (Ac-DEVD-R110 cleavage) in MIA PaCa-2 cells; format: cell-based
Description: Caspase-3 activity was measured using its ability to cleave its substrate (Ac-DEVD-R110). Increased Caspase-3 activity would lead to higher release of fluorescent R110 which was measured at 485 nm excitation and 530 nm emission. Activity of caspase-3 (as nano-moles of R110 released) was normalized to total cellular protein. […] Cell death was measured by increased levels of DNA fragments as per manufacturer's protocol (Roche) and was normalized to total cellular DNA. Data are represented as % of control.

male Syrian Hamsters = assay: High cholesterol diet induced hyperlipidaemia in hamsters; format: in vivo; details: 10 mg/kg b.wt, 8-12 weeks
Description: Eight to ten week old male Syrian Hamsters were housed in polypropylene cages provided with sterile paddy husk as bedding material. The animals were maintained at temperature 22±3° C., relative humidity 50-70%, 15-18 air cycle changes with 12 h dark and light cycle. The animals were provided with rodent feed (ad libitum) supplied by harlan laboratories to normal control animals and treatment groups were fed with High Cholesterol diet, prepared in-house by mixing 11.5% coconut oil, 11.5% corn oil, 0.5% cholesterol, and 0.25% deoxycholate in chow diet. Bisleri water (ad libitum) was provided. The animals were randomized based on body weight and divided into control and treatment groups. Compound 40 was administered, at a dose of 10 mg/kg b.wt, for a period of 8-12 weeks to the treatment group. Daily feed consumption, weekly body weight, total cholesterol and triglyceride levels were estimated.

MIA PaCa-2 cells [3] = assay: BrdU incorporation assay in MIA PaCa-2 cells; format: cell-based; details: 3 uM
Description: Impact of compound-40 on cell proliferation was further evaluated by BrdU incorporation assay. MIA PaCa-2 cells were grown for 4 days in presence or absence of compound-40 (3 uM). After treatment with vehicle control or compound-40 (3 uM), cells were exposed to BrdU. BrdU incorporation was measured using a commercially available kit (Roche) as per manufacturer's protocol.

Male Wistar rats = assay: Isoprenaline induced cardiac hypertrophy in rats; format: in vivo; details: 10 mg/kg, p.o., q.d., 11 weeks
Description: Male Wistar rats of fourteen weeks age were housed under controlled temperature 22±3° C., relative humidity 50-70%, 12 hour light and 12 hour dark cycle with artificial fluorescent tubes. Animals were acclimatized for seven days. On eight day animals were randomized based on their body weights and allotted into nine animals/group. Different groups into which animals allotted were G1: Vehicle control, G2: Isoprenaline control (5 mg/kg, s.c. twice a week) and G3: Isoprenaline (5 mg/kg, s.c. twice a week)+Compound 40 (10 mg/kg, p.o., q.d.). Treatment with Compound 40 (10 mpk) for G3 group was started one week prior to isoprenaline administration and both the treatments were continued for eleven weeks. The animals were monitored for daily feed consumption and weekly body weight throughout the study. At the end of treatment period (Week 11) five animals from each group were subjected to Cardiovascular hemodynamic assessment by Millar catheter using MPVS Ultra control interface connected to AD power lab, AD instruments. Different parameters measured were heart rate, stroke work, stroke volume, cardiac output, left ventricular systolic pressure, left ventricular diastolic pressure, left ventricular diastolic volume Immediately after hemodynamic estimation terminal blood from all the animals were collected followed by the collection of hearts. All the separated serum samples were used for estimation of several cardiac markers like ANP, BNP, CRP, LDH, CKN, CKMB and SGOT. Collected hearts were examined for histopathological changes and gene expression studies. All the numerical output was expressed as Mean±SEM, one way ANOVA followed by Dunnets' test using Graph pad prism software.

MIA PaCa-2 cells [4] = assay: ROS level (DCFH-DA probe) in MIA PaCa-2 cells; format: cell-based; details: 4 days treatment
Description: To assess the impact of Compound 40 on ROS level, the cells were exposed to ROS indicator probe (DCFH-DA) for 1 h. ROS induced increase in DCF fluorescence was estimated at 485 nm excitation and 528 nm emission. ROS levels were normalized to cellular DNA levels which were measured by using bis-benzamide fluorescence at 360 nm excitation and 460 nm emission. The ROS levels are represented at % of control. […] Over-expression of RXRa further augmented the ROS levels.

For `CC1(C)CCC(C)(C)c2sc(N(CC3CC3)c3ccc(C(=O)O)cn3)nc21` [Compound 40, 6-[(Cyclopropylmethyl) (4,4,7,7-tetramethyl-4,5,6,7-tetrahydro-1,3-benzothiazol-2-yl)amino]pyridine-3-carboxylic acid], the “cell growth (cell count)” value (MIA PaCa-2 cells [1]) was “significant reduction in cell growth”, the Caspase-3 activity (MIA PaCa-2 cells [2]) was “significantly increased” and the LDL-c (male Syrian Hamsters) was “significant reduction”. The Non-HDL cholesterol (male Syrian Hamsters) was “significant reduction”, the total cholesterol (male Syrian Hamsters) was “significant reduction” and the BrdU incorporation (MIA PaCa-2 cells [3]; 4 days) was “significantly reduced”. The “BrdU incorporation in RXRa over-expressing MIA PaCa-2” value (MIA PaCa-2 cells [3]; RXRa over-expressing cells) was “further reduced the BrdU incorporation”, the absolute heart weight (Male Wistar rats; isoprenaline 5 mg/kg, s.c. twice a week) was “substantial reduction” and the “Stroke volume (SV)” value (Male Wistar rats; isoprenaline) was “significant improvement”. The “Stroke work (SW)” value (Male Wistar rats; isoprenaline) was “significant improvement”, the cardiac output (Male Wistar rats; isoprenaline) was “improved” and the ejection fraction (Male Wistar rats; isoprenaline) was “improved”. For the same compound, the heart rate (Male Wistar rats; isoprenaline) was “improved”, the “thickness of the septum” value (Male Wistar rats; isoprenaline) was “significant reduction” and the “thickness of the ventricular wall” value (Male Wistar rats; isoprenaline) was “significant reduction”. For the same compound, the ventricular refilling (Male Wistar rats; isoprenaline) was “improvement in ventricular refilling” and the ROS levels (MIA PaCa-2 cells [4]) was “significant augmentation of stress levels”.

Source: patent publication US9862713B2, “Substituted bicyclic heteroaryl compounds as RXR agonists” (CONNEXIOS LIFE SCIENCES PVT. LTD., priority 2014, dated 2018)
